{
  "source": "patent US8354518B2",
  "about": "“HCV replicons containing NS5B from genotype 2B” (Merck Sharp & Dohme Corp., priority 2003, dated 2013)",
  "format_in_all_cases": "cell-based, Hepatitis C virus (HCV)",
  "key": {"BK-2bM31I": {"target": "BK-2bM31I", "assay": "β-lactamase reporter replicon assay, BK-2bM31I chimeric replicon", "conditions": "BK-2bM31I replicon in MR2 (Huh7 derived) cells, two days with drug, percent of DMSO control, 4 parameter fit", "method": "(§1) Selection of persistently replication cells lines expressing β-lactamase, using bla:2b chimeric replicons each harboring a different mutation (N24S, M31I, I392L) defined in the Neo^r selection studies described above, was performed in the enhanced replication Huh7 derived cell line MR2. (Murray et al., J. of Virology, 77:2928-2935, 2003.) To generate RNA for transfection, plasmids were linearized by digestion of an XbaI site distal to the replicon sequences. RNA was generated using MEGAscript™ (Ambion, Austin, Tex.) and quantitated by UV absorbance.\n(§2) MR2 was maintained in Dulbecco's modified Eagle's medium (DMEM) supplemented with 10% fetal bovine serum, nonessential amino acids, 2 mM GlutaMAX, and Penn/Strep (Invitrogen Corp., Carlsbad, Calif.). Cells were seeded the night prior to transfection at a density of 300,000 cells per well in a 6-well dish. A mixture of 5 μg RNA, 12 μl of DMRE-C (Invitrogen Corp., Carlsbad, Calif.), and 2 ml of Opti-Mem (Invitrogen Corp., Carlsbad, Calif.) media was prepared and allowed to sit for 10 minutes. During this time media was removed from the MR2 cells, cells were washed once with Opti-Mem, then the RNA:DMRE-C mixture was added dropwise, and incubated for ˜8 hours. Transfection media was removed by aspiration, and replaced with 2 ml DMEM."}, "[1]": {"system": "bk:2B bla chimeric replicon bearing change at residue 24", "assay": "β-lactamase reporter replicon assay, bk:2B bla chimeric replicon with change at residue 24", "conditions": "at the EC95 for 2′C-methyladenosine; replicon not robust enough for IC50 determination", "method": "as §1\n(§3) On day 4 cells from one flask were collected, counted, and seeded into a 96 well Cytostar plate at a density of 7,500 cells/well in the presence of 1 μM clavulonic acid. […] Simultaneously, the other flasks were analyzed for β-lactamase activity to verify both that activity from a non-replicating control sub-genomic replicon was undetectable, and establish the day 4 replication activity of the test replicons. […] Cells with drug were incubated for two days, and analyzed as described in Example 4.\n(§4) Medium was removed by aspiration and cells were stained for 2 hours with CCF4-AM (Invitrogen Corp., Carlsbad, Calif.) in DMEM supplemented with 25 mM HEPES, pH 8.0. Fluorescence due to β-lactamase activity was measured through excitation at 405 nm, followed by measurement of the emission at 460 nm using a CytoFluor 4000 fluorescence plate reader. […]"}, "BK NS5a268S-2bN24S": {"target": "BK NS5a268S-2bN24S", "assay": "β-lactamase reporter replicon assay, BK NS5a268S-2bN24S chimeric replicon", "conditions": "BK NS5a268S-2bN24S replicon", "method": "as §1, with “absorbance. […]” for “absorbance.”\n(§5) The next morning cells were expanded into two T75 flasks and grown for an additional three days. A duplicate well for each replicon construct was analyzed for β-lactamase activity to verify that the transfection efficiency was >90%.\nas §3, with “4. […]” for “4.”"}, "BK-2b N24S/L392I": {"target": "BK-2b N24S/L392I", "assay": "β-lactamase reporter replicon assay, BK-2b N24S/L392I chimeric replicon", "conditions": "BK-2b N24S/L392I replicon", "method": "as §1, with “absorbance. […]” for “absorbance.”\nas §5\nas §3, with “4. […]” for “4.”"}, "Con1-2bM31I": {"target": "Con1-2bM31I", "assay": "β-lactamase reporter replicon assay, Con1-2bM31I chimeric replicon", "conditions": "Con1-2bM31I replicon in MR2 (Huh7 derived) cells, two days with drug, percent of DMSO control, 4 parameter fit", "method": "as §1, §2"}, "[2]": {"system": "bk:2B bla chimeric replicon bearing change at residue 392", "assay": "β-lactamase reporter replicon assay, bk:2B bla chimeric replicon with change at residue 392", "conditions": "at the EC95 for 2′C-methyladenosine; replicon not robust enough for IC50 determination", "method": "as §1, §3, §4"}},
  "data": [
    {"smiles": "C[C@@]1(O)[C@H](O)[C@@H](CO)O[C@H]1n1cnc2c(N)ncnc21", "note": "[2′C-methyladenosine]", "values": [
      {"measurement": "EC50", "setting": "BK-2bM31I", "result": 667, "unit": "nM"},
      {"measurement": "inhibition of limited replication", "setting": "[1]", "result": "could be inhibited"},
      {"measurement": "EC50", "setting": "BK NS5a268S-2bN24S", "result": 982, "unit": "nM"},
      {"measurement": "EC50", "setting": "BK-2b N24S/L392I", "result": 185, "unit": "nM"},
      {"measurement": "EC50", "setting": "Con1-2bM31I", "result": 407, "unit": "nM"},
      {"measurement": "inhibition of limited replication", "setting": "[2]", "result": "could be inhibited"}
    ]}
  ]
}
